In patent US20260085062A1, “NOVEL COMPOUNDS AS CK2 INHIBITORS” (Cambridge Enterprise Limited, priority 2022, published 2026):

Columns and labels:
CK2α = molecular target: T1, CK2α (Homo sapiens, UniProt P68400); assay: Biochemical assay for inhibitors of CK2α kinase activity (ADP-Glo); details: 0.2 nM CK2α, 50 μM peptide substrate, 15 μM ATP, read-out: Assay 1: CK2α Enzyme IC50
T1 construct: CK2α (residues 2-329) was produced in Escherichia coli BL21 (DE3) for kinase activity screening; His6 (N, cleaved yes); made in house; host or cells: Escherichia coli BL21 (DE3)
T1 sequence (P68400 2-329): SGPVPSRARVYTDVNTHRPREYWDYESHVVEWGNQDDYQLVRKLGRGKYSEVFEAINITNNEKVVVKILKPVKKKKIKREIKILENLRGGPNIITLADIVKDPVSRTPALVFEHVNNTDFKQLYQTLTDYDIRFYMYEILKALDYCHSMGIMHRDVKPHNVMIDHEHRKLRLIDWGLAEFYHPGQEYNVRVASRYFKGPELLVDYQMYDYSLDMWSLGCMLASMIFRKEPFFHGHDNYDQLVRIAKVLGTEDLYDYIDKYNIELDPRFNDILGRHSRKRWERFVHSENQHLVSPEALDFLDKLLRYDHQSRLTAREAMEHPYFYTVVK

CLK2 = molecular target: T2, CLK2 (Homo sapiens, UniProt P49760); assay: Biochemical assay for inhibitors of CLK2 kinase activity (ADP-Glo); details: 20 nM CLK2, 50 μM peptide substrate, 100 μM ATP, read-out: Assay 2: CLK2 Enzyme IC50
T2 construct: purchased Carna Biosciences 04-127

intracellular CK2α = molecular target: T3, intracellular CK2α (Homo sapiens, UniProt P19784); assay: Cell-based NanoBRET assay for inhibitor binding to intracellular CK2α; details: HCT116 cells transiently transfected with CSNK2A2-NanoLuc fusion vector; Tracer K-5; 2 h; read-out: Assay 3: NanoBRET ™ assay for binding to intracellular CK2α
T3 construct: host or cells: HCT116 (ATCC CCL-247)
Method in brief: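 Apparent affinity came from BRET ratio (acceptor/donor ×1,000), with donor read at 450 nm and acceptor at 610 or 630 nm. Compounds competed off a tracer added at fixed concentration to cells carrying a NanoLuc-CK2α fusion.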

T3 sequence (P19784 whole entry, the tested form may be a part): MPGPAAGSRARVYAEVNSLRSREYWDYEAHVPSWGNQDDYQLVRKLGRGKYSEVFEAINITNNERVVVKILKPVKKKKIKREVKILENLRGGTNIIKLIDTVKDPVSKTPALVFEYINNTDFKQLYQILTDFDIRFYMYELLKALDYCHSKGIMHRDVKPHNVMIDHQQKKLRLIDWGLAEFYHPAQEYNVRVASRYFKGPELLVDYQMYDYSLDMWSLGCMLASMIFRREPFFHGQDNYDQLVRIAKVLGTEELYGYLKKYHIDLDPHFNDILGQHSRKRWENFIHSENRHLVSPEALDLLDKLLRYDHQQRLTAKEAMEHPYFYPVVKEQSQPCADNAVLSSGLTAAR
T2 sequence (P49760 whole entry): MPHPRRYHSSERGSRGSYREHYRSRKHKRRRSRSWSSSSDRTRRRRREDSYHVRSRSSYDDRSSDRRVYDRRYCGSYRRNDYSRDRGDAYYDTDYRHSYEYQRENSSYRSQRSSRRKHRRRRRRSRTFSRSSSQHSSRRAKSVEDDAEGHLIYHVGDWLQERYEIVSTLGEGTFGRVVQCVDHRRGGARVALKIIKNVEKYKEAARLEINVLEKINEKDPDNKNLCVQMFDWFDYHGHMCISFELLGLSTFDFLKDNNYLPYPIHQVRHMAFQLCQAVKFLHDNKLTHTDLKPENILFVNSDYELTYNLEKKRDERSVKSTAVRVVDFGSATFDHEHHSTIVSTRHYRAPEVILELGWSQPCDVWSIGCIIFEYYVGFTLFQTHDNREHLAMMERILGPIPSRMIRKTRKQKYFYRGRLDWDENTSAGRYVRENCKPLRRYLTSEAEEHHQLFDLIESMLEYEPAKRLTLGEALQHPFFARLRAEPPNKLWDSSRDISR

| Structure (SMILES) | IC50 (CK2α) [nM] | IC50 (CLK2) [nM] | IC50 (intracellular CK2α) [nM] |
| --- | --- | --- | --- |
| Fc1cc(CNCCCCOCCNc2c(Cl)c(-n3cnnc3)cc3[nH]ncc23)cc(F)c1OC(F)(F)F [Example 186, 5-chloro-N-(2-(4-((3,5-difluoro-4-(trifluoromethoxy)benzyl)amino)butoxy)ethyl)-6-(4H-1,2,4-triazol-4-yl)-1H-indazol-4-amine] | 717 | 4750 | > 48900 |
| C[C@@H](CCCOCCNc1cc(-n2cnnc2)cc2[nH]ncc12)NCc1cc(CO)cc(OC(F)(F)F)c1 [Example 192, (S)-(3-(((5-(2-((6-(4H-1,2,4-triazol-4-yl)-1H-indazol-4-yl)amino)ethoxy)pentan-2-yl)amino)methyl)-5-(trifluoromethoxy)phenyl)methanol] | 10.6 | 665 | 377 |
| Fc1cc(CNCCCCOCCNc2cc(-c3ccncc3)c(Cl)c3[nH]ncc23)cc(F)c1OC(F)(F)F [Example 166, 7-chloro-N-(2-(4-((3,5-difluoro-4-(trifluoromethoxy)benzyl)amino)butoxy)ethyl)-6-(pyridin-4-yl)-1H-indazol-4-amine] | 21.3 | 783 | 2670 |
| Cn1c(CNCCC(=O)NCCCNc2cc(-n3cnnc3)cc3[nH]ncc23)cc2cc(C(F)(F)F)ccc21 [Example 38, N-(3-((6-(4H-1,2,4-triazol-4-yl)-1H-indazol-4-yl)amino)propyl)-3-(((1-methyl-5-(trifluoromethyl)-1H-indol-2-yl)methyl)amino)propanamide] | 0.53 | 121 | 792 |
| Cc1cc(CC#N)cc(CNCCCCOC2CN(c3cc(-c4cnoc4)cc4[nH]ncc34)C2)c1 [Example 121, 2-(3-(((4-((1-(6-(isoxazol-4-yl)-1H-indazol-4-yl)azetidin-3-yl)oxy)butyl)amino)methyl)-5-methylphenyl)acetonitrile] | 44.9 | 209 | 3670 |
| C[C@@H](CCCOCCNc1cc(-c2cnnc(O)c2)cc2[nH]ncc12)NCc1cc(CO)cc(OC(F)(F)F)c1 [Example 193, (S)-5-(4-((2-((4-((3-(hydroxymethyl)-5-(trifluoromethoxy)benzyl)amino)pentyl)oxy)ethyl)amino)-1H-indazol-6-yl)pyridazin-3-ol] | 1.21 | 355 | 87.1 |
| O=C(CCNCc1ccc(OC(F)(F)F)c(Cl)c1)NCCCOc1cc(-n2cnnc2)cc2[nH]ncc12 [Example 19, N-(3-((6-(4H-1,2,4-triazol-4-yl)-1H-indazol-4-yl)oxy)propyl)-3-((3-chloro-4-(trifluoromethoxy)benzyl)amino)propanamide] | 3.13 | 574 | 5070 |
| O=C(CCNCc1ccc(OC(F)(F)F)c(Cl)c1)NCCCNc1cc(-c2ccncc2)c(F)c2[nH]ncc12 [Example 180, 3-((3-chloro-4-(trifluoromethoxy)benzyl)amino)-N-(3-((7-fluoro-6-(pyridin-4-yl)-1H-indazol-4-yl)amino)propyl)propanamide] | 3.68 | 190 | 100 |
| N#CCc1cc(CNCCCCOC2CN(c3cc(-n4cnnc4)cc4[nH]nnc34)C2)cc(OC(F)(F)F)c1 [Example 154, 2-(3-(((4-((1-(6-(4H-1,2,4-triazol-4-yl)-1H-benzo[d][1,2,3]triazol-4-yl)azetidin-3-yl)oxy)butyl)amino)methyl)-5-(trifluoromethoxy)phenyl)acetonitrile] | 170 | 24700 | > 50000 |
| N#Cc1cc(-c2cc(NCCCNC(=O)CCNCc3ccc(OC(F)(F)F)c(Cl)c3)c3cn[nH]c3c2)cnn1 [Example 187, 3-((3-chloro-4-(trifluoromethoxy)benzyl)amino)-N-(3-((6-(6-cyanopyridazin-4-yl)-1H-indazol-4-yl)amino)propyl)propanamide] | 8.62 | 4680 | 949 |
| O=C(CCNCc1cccc(CCO)c1)NCCCNc1cc(-n2cnnc2)cc2[nH]ncc12 [Example 40, N-(3-((6-(4H-1,2,4-triazol-4-yl)-1H-indazol-4-yl)amino)propyl)-3-((3-(2-hydroxyethyl)benzyl)amino)propanamide] | 9.06 | 87.5 | > 50000 |
| O=C(CCNCc1ccc(-c2ccccc2)c(Cl)c1)NCCCNc1cc(-n2cncn2)cc2[nH]ncc12 [Example 4, N-(3-((6-(1H-1,2,4-triazol-1-yl)-1H-indazol-4-yl)amino)propyl)-3-(((2-chloro-[1,1′-biphenyl]-4-yl)methyl)amino)propanamide] | 3.63 | 1010 | 242 |
| N#CCc1cc(Cl)cc(CNCCCCOC2CN(c3cc(-c4cnoc4)cc4[nH]ncc34)C2)c1 [Example 122, 2-(3-chloro-5-(((4-((1-(6-(isoxazol-4-yl)-1H-indazol-4-yl)azetidin-3-yl)oxy)butyl)amino)methyl)phenyl)acetonitrile] | 29.8 | 106 | 840 |
| N#CCc1cc(Cl)cc(CNCCCCOC2CN(c3cc(-n4cnnc4)cc4[nH]ncc34)C2)c1 [Example 131, 2-(3-(((4-((1-(6-(4H-1,2,4-triazol-4-yl)-1H-indazol-4-yl)azetidin-3-yl)oxy)butyl)amino)methyl)-5-chlorophenyl)acetonitrile] | 28.1 | 146 | 3000 |
| FC(F)(F)Oc1ccc(CNCCCCOCCOc2cc(-c3ccnnc3)cc3[nH]nnc23)cc1Cl [Example 102, N-(3-chloro-4-(trifluoromethoxy)benzyl)-4-(2-((6-(pyridazin-4-yl)-1H-benzo[d][1,2,3]triazol-4-yl)oxy)ethoxy)butan-1-amine] | 393 | 43000 | > 50000 |
| N#CCc1cc(CNCCCCOCCOc2cc(-n3cnnc3)cc3[nH]nnc23)cc(OC(F)(F)F)c1 [Example 148, 2-(3-(((4-(2-((6-(4H-1,2,4-triazol-4-yl)-1H-benzo[d][1,2,3]triazol-4-yl)oxy)ethoxy)butyl)amino)methyl)-5-(trifluoromethoxy)phenyl)acetonitrile] | 138 | > 50000 | > 50000 |
| Cc1cnccc1-c1cc(NCCCNC(=O)CCNCc2ccc(OC(F)(F)F)c(Cl)c2)c2cn[nH]c2c1 [Example 165, 3-((3-chloro-4-(trifluoromethoxy)benzyl)amino)-N-(3-((6-(3-methylpyridin-4-yl)-1H-indazol-4-yl)amino)propyl)propanamide] | 72.9 | 7320 | 3740 |
| Fc1cc(CNCCCCOCCNCc2cc(-n3cnnc3)cc3[nH]ncc23)cc(F)c1OC(F)(F)F [Example 171, 4-(2-(((6-(4H-1,2,4-triazol-4-yl)-1H-indazol-4-yl)methyl)amino)ethoxy)-N-(3,5-difluoro-4-(trifluoromethoxy)benzyl)butan-1-amine] | 45.3 | 23300 | 4900 |
| O=C(CCNCc1ccc(OC(F)(F)F)c(Cl)c1)NCCCNc1cc(-c2nnc[nH]2)cc2[nH]ncc12 [Example 174, N-(3-((6-(4H-1,2,4-triazol-3-yl)-1H-indazol-4-yl)amino)propyl)-3-((3-chloro-4-(trifluoromethoxy)benzyl)amino)propanamide] | 7.41 | 5980 | 4640 |
| OCc1cc(F)cc(CNCCCCOC2CN(c3cc(-c4ccnnc4)cc4[nH]ncc34)C2)c1 [Example 110, (3-fluoro-5-(((4-((1-(6-(pyridazin-4-yl)-1H-indazol-4-yl)azetidin-3-yl)oxy)butyl)amino)methyl)phenyl)methanol] | 384 | 2720 | 20600 |
| O=C(CCNCc1ccc(-c2ccccc2)c(Cl)c1)NCCCNc1cc(N2CCOCC2)cc2[nH]ncc12 [Example 78, 3-(((2-chloro-[1,1′-biphenyl]-4-yl)methyl)amino)-N-(3-((6-morpholino-1H-indazol-4-yl)amino)propyl)propanamide] | 472 | > 50000 | > 50000 |
| FC(F)(F)c1ccc2[nH]c(CNCCCCOCCNc3cc(-n4cnnc4)cc4[nH]ncc34)cc2c1 [Example 49, 6-(4H-1,2,4-triazol-4-yl)-N-(2-(4-(((5-(trifluoromethyl)-1H-indol-2-yl)methyl)amino)butoxy)ethyl)-1H-indazol-4-amine] | 0.44 | 90.5 | 106 |
| c1cc(-c2cc(N3CC(OCCCCNCc4cc5cc(OC6CCC6)ccc5[nH]4)C3)c3cn[nH]c3c2)cnn1 [Example 109, N-((5-cyclobutoxy-1H-indol-2-yl)methyl)-4-((1-(6-(pyridazin-4-yl)-1H-indazol-4-yl)azetidin-3-yl)oxy)butan-1-amine] | 42.5 | 2920 | 2810 |
